Columns and labels:
D(1A) dopamine receptor [1] = molecular target: T1, D(1A) dopamine receptor (Homo sapiens, UniProt P21728); assay: Agonist activity at D1R (unknown origin) transfected in human HEK293T cells assessed as increase in cAMP accumulation incubated for 2 hrs by cAMP Glo-sensor assay; format: functional, cell-based
D(1A) dopamine receptor [2] = molecular target: T1, D(1A) dopamine receptor; assay: Agonist activity at C-terminal RLuc8-fused D1R (unknown origin) transfected in human HEK293T cells co-expressing N-terminal Venus-tagged beta-arrestin2 assessed as increase in beta-arrestin2 recruitment measured after 5 mins in presence of coelenterazine H by BRET assay; format: cell-based
D(2) dopamine receptor [3] = molecular target: T2, D(2) dopamine receptor (Homo sapiens, UniProt P14416)
T2 sequence (P14416 whole entry): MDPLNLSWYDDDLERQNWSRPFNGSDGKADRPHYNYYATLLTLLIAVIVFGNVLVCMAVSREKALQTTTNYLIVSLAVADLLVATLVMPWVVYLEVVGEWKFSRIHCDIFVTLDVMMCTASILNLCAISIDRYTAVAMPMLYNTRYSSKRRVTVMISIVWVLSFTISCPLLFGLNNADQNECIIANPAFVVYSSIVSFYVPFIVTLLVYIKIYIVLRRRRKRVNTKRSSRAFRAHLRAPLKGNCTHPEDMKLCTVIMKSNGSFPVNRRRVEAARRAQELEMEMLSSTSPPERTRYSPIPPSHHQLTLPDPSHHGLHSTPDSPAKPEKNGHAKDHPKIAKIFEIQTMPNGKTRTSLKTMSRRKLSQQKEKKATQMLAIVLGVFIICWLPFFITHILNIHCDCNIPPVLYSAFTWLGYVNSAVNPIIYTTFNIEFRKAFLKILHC

D(1A) dopamine receptor [4] = molecular target: T1, D(1A) dopamine receptor
D(2) dopamine receptor [5] = molecular target: T2, D(2) dopamine receptor; assay: Agonist activity at D2 long receptor (unknown origin) transfected in human HEK293T cells assessed as increase in cAMP accumulation incubated for 2 hrs by cAMP Glo-sensor assay; format: functional, cell-based
D(2) dopamine receptor [6] = molecular target: T2, D(2) dopamine receptor; remark: listed apart in the source

T1 sequence (P21728 whole entry, the tested form may be a part): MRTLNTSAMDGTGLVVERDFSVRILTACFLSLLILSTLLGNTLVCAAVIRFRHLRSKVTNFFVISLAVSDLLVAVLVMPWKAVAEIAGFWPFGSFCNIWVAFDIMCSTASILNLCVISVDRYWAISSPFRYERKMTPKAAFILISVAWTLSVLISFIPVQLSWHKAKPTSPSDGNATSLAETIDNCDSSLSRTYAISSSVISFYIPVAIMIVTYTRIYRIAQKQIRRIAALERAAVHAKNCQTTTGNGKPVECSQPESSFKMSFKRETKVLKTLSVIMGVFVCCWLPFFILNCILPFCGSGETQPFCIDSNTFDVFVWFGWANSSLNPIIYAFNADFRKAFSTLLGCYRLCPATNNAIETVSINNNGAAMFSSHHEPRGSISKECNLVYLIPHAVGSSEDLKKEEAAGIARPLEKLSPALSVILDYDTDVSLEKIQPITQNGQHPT

EC50 (D(1A) dopamine receptor [1]; read-out: pEC50 (converted)) [nM] | Structure (SMILES) | EC50 (D(1A) dopamine receptor [1]; read-out: EC50) [nM] | EC50 (D(1A) dopamine receptor [2]; read-out: EC50) [nM] | log(Tau/KA) (D(2) dopamine receptor [3]) | G-protein bias factor (D(1A) dopamine receptor [4]) | EC50 (D(2) dopamine receptor [5]; read-out: EC50) [µM] | EC50 (D(2) dopamine receptor [5]; read-out: pEC50 (converted)) [µM] | EC50 (D(2) dopamine receptor [6]) [nM] | EC50 (D(1A) dopamine receptor [2]; read-out: pEC50 (converted)) [nM]
 | COCOc1ccc2c(c1OCOC)-c1cccc3c1[C@@H](C2)N(C)CC3 | > 10000 | 8.45 |  |  |  |  |  | 
 | CCc1cc2c(c(OC(C)=O)c1OC(C)=O)-c1cccc3c1[C@@H](C2)N(C)CC3 | 1550 | 0.38 |  |  |  |  |  | 
 | CCCN1CCc2cccc3c2[C@H]1Cc1ccc(O)c(O)c1-3 |  |  | 0.85 | 19.3 |  |  |  | 
 | CC(=O)Oc1c(Cl)cc2c(c1OC(C)=O)-c1cccc3c1[C@@H](C2)N(C)CC3 |  |  |  |  | > 10 | > 10 | 604 | 
 | CC(=O)Oc1c(C(C)C)cc2c(c1OC(C)=O)-c1cccc3c1[C@@H](C2)N(C)CC3 | 951 | > 10000 |  |  | > 10 | > 10 | > 10000 | > 10000
 | CC(=O)Oc1c(Br)cc2c(c1OC(C)=O)-c1cccc3c1[C@@H](C2)N(C)CC3 |  |  |  |  | > 10 | > 10 | 1410 | 
 | CN1CCc2cccc3c2[C@H]1Cc1ccc2c(c1-3)OCO2 | 112 | > 10000 |  |  | > 10 | > 10 | 102 | > 10000
661 | COc1cccc(-c2cc3c(c(OC(C)=O)c2OC(C)=O)-c2cccc4c2[C@@H](C3)N(C)CC4)c1 | 669 | 41.4 |  |  | > 10 | > 10 |  | 
 | CN1CCc2cccc3c2[C@H]1Cc1ccc(O)c(O)c1-3 |  |  | 2.16 | 41.5 |  |  |  | 

From ChEMBL document CHEMBL4342494 (ACS Med Chem Lett, 2020)
